Results as given in US8431597B2, “Benzimidazole derivatives” (Pfizer Inc., priority 2007, dated 2013).
Structures can show the parent of a compound that is named as a salt.

Target: T1, Smoothened (SMO) (Mus musculus, UniProt P56726)
T1 construct: C3H10T1/2 cells (ATCC #CCL-226) were split and seeded; endogenous in cells; host or cells: C3H10T1/2 (ATCC #CCL-226)
Assay: Smoothened (SMO)/Sonic Hedgehog (SHh) Transient Transcriptional Activation Assay (Gli-luciferase reporter in C3H10T1/2 cells)
Assay type: cell-based, murine
Details: 2 μM compound; transfected C3H10T1/2 cells, recombinant human SHh 250 ng/mL, 20 hours, luciferase readout; 2 µM
In short: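 C3H10T1/2 cells transiently transfected with a murine Gli-responsive firefly luciferase reporter plus pEGFP were serum-starved 20 h in 0.5% calf serum. Compound (2 μM to 2 nM final) was added with recombinant human SHh at 250 ng/mL final for 20 h at 37 °C. Read-out was Dual-Glo luminescence.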

T1 sequence (P56726 33-793): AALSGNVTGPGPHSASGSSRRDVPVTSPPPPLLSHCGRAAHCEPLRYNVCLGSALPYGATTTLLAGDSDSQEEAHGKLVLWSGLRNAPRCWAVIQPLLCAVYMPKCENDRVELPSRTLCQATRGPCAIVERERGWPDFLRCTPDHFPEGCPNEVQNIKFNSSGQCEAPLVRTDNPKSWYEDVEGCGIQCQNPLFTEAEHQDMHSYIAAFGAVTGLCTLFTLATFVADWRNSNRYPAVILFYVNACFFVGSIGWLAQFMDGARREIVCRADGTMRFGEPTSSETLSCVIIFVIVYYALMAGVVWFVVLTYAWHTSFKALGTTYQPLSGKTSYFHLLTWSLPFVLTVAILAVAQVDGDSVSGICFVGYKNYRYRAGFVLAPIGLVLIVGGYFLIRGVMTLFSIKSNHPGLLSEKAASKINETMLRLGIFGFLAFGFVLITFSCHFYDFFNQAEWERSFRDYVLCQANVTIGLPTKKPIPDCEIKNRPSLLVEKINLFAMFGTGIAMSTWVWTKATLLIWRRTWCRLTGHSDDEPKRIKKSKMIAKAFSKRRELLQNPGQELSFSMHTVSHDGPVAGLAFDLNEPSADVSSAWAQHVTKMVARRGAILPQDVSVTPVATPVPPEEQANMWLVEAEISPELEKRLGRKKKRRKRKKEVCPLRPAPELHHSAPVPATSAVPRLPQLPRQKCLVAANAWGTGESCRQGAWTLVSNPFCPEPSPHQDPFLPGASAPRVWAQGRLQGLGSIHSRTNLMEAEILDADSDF

Row | SMO CELL % INHIBITION @ 2 μM | SMILES
1 | 65.00% | O=C(N[C@@H]1CN[C@H](c2nc3ccccc3[nH]2)C1)c1ccc2c(c1)OCCO2 [Example 9, N-[(3S,5S)-5-(1H-benzimidazol-2-yl)pyrrolidin-3-yl]-2,3-dihydro-1,4-benzodioxine-6-carboxamide]
2 | 110.10% | O=C(N[C@@H]1CN[C@H](c2nc3ccccc3[nH]2)C1)c1ccc2c(c1)OCCO2 [Example 11, N-[(3S,5S)-5-(1H-benzimidazol-2-yl)pyrrolidin-3-yl]-2,3-dihydro-1,4-benzodioxine-6-carboxamide]

Same assay, conditions: C3H 10T1/2, 2 μM compound; transfected C3H10T1/2 cells, recombinant human SHh 250 ng/mL, 20 hours, luciferase readout; read-out: SMO CELL % INHIBITION @ 2 μM

Row | inhibition at 2 µM | SMILES
3 | 106% | COc1ccc(NC(=O)N[C@@H]2CCN(C)[C@@H](c3nc4ccc(F)cc4[nH]3)C2)cn1 [Example 139, 1-[(2R,4R)-2-(6-fluoro-1H-benzimidazol-2-yl)-1-methylpiperidin-4-yl]-3-(6-methoxypyridin-3-yl)urea hydrochloride]
4 | 105% | CC(=O)c1c(C)[nH]c(C(=O)N[C@@H]2CCN(C)[C@@H](c3nc4ccccc4[nH]3)C2)c1C [Example 50, 4-acetyl-N-[(2R,4R)-2-(1H-benzimidazol-2-yl)-1-methylpiperidin-4-yl]-3,5-dimethyl-1H-pyrrole-2-carboxamide hydrochloride]
5 | 110% | Cc1ccc(NC(=O)N[C@@H]2CCN(C)[C@@H](c3nc4ccc(Cl)cc4[nH]3)C2)cn1 [Example 126, 1-[(2R,4R)-2-(6-chloro-1H-benzimidazol-2-yl)-1-methylpiperidin-4-yl]-3-(6-methylpyridin-3-yl)urea hydrochloride]
6 | 105% | Cc1cc2nc([C@H]3C[C@H](NC(=O)c4ccc5c(c4)OCCO5)CCN3C)[nH]c2cc1C [Example 49, N-[(2R,4R)-2-(5,6-dimethyl-1H-benzimidazol-2-yl)-1-methylpiperidin-4-yl]-2,3-dihydro-1,4-benzodioxine-6-carboxamide hydrochloride]
7 | 98% | CN1CC[C@@H](NC(=O)Nc2cccnc2)C[C@@H]1c1nc2ccccc2[nH]1 [Example 80, 1-[(2R,4R)-2-(1H-benzimidazol-2-yl)-1-methylpiperidin-4-yl]-3-pyridin-3-ylurea hydrochloride]
8 | 64.5% | CN1CC[C@@H](NC(=O)c2ccc3nonc3c2)C[C@@H]1c1nc2ccccc2[nH]1 [Example 119, N-[(2R,4R)-2-(1H-benzimidazol-2-yl)-1-methylpiperidin-4-yl]-2,1,3-benzoxadiazole-5-carboxamide trifluoroacetate]
9 | 85.3% | CN1CC[C@@H](NC(=O)c2ccc3c(c2F)OCCO3)C[C@@H]1c1nc2ccccc2[nH]1 [Example 141, N-[(2R,4R)-2-(1H-benzimidazol-2-yl)-1-methylpiperidin-4-yl]-5-fluoro-2,3-dihydro-1,4-benzodioxine-6-carboxamide trifluoroacetate]
10 | 108% | COc1ccc(NC(=O)N[C@@H]2CCN(C)[C@@H](c3nc4cc(C)c(C)cc4[nH]3)C2)cn1 [Example 138, 1-[(2R,4R)-2-(5,6-dimethyl-1H-benzimidazol-2-yl)-1-methylpiperidin-4-yl]-3-(6-methoxypyridin-3-yl)urea hydrochloride]
11 | 105% | Cc1ccc2nc([C@H]3C[C@H](NC(=O)c4ccc5c(c4)OCCO5)CCN3C)[nH]c2c1 (stereo in doubt) [Example 6, 2,3-Dihydro-benzo[1,4]dioxine-6-carboxylic acid [1-methyl-2-(6-methyl-1H-benzoimidazol-2-yl)-piperidin-4-yl]-amide hydrochloride]
12 | 99.3% | CN1CC[C@@H](NC(=O)Cc2ccc(Cl)s2)C[C@@H]1c1nc2ccccc2[nH]1 [Example 78, N-[(2R,4R)-2-(1H-benzimidazol-2-yl)-1-methylpiperidin-4-yl]-2-(5-chloro-2-thienyl)acetamide hydrochloride]
13 | 65.1% | Cc1cccc2cc(C(=O)N[C@@H]3CCN(C)[C@@H](c4nc5ccccc5[nH]4)C3)nn12 [Example 118, N-[(2R,4R)-2-(1H-benzimidazol-2-yl)-1-methylpiperidin-4-yl]-7-methylpyrazolo[1,5-a]pyridine-2-carboxamide trifluoroacetate]
14 | 96.1% | COc1ccc(NC(=O)N[C@@H]2CCN(C)[C@@H](c3nc4ccccc4[nH]3)C2)cn1 [Example 83, 1-[(2R,4R)-2-(1H-benzimidazol-2-yl)-1-methylpiperidin-4-yl]-3-(6-methoxypyridin-3-yl)urea hydrochloride]
15 | 104% | CN(C)c1ccc(NC(=O)N[C@@H]2CCN(C)[C@@H](c3nc4ccccc4[nH]3)C2)cc1 [Example 56, 1-[(2R,4R)-2-(1H-benzimidazol-2-yl)-1-methylpiperidin-4-yl]-3-[4-(dimethylamino)phenyl]urea hydrochloride]
16 | 83.2% | CN1CC[C@@H](NC(=O)Cc2ccccc2)C[C@@H]1c1nc2ccccc2[nH]1 [Example 110, N-[(2R,4R)-2-(1H-benzimidazol-2-yl)-1-methylpiperidin-4-yl]-2-phenylacetamide trifluoroacetate]
17 | 92.3% | CN1CC[C@@H](NC(=O)c2ccc3c(c2)CCC(=O)N3)C[C@@H]1c1nc2ccccc2[nH]1 [Example 87, N-[(2R,4R)-2-(1H-benzimidazol-2-yl)-1-methylpiperidin-4-yl]-2-oxo-1,2,3,4-tetrahydroquinoline-6-carboxamide hydrochloride]
18 | 106% | CN1CC[C@@H](NC(=O)Nc2ccc(C#N)cn2)C[C@@H]1c1nc2ccccc2[nH]1 [Example 43, 1-[(2R,4R)-2-(1H-benzimidazol-2-yl)-1-methylpiperidin-4-yl]-3-(5-cyanopyridin-2-yl)urea hydrochloride]
19 | 87.9% | Cc1nc(C(F)(F)F)ccc1C(=O)N[C@@H]1CCN(C)[C@@H](c2nc3ccccc3[nH]2)C1 [Example 91, N-[(2R,4R)-2-(1H-benzimidazol-2-yl)-1-methylpiperidin-4-yl]-2-methyl-6-(trifluoromethyl)nicotinamide hydrochloride]
20 | 83.5% | COc1ccc2[nH]c([C@H]3C[C@H](NC(=O)c4ccc5c(c4F)OCCO5)CCN3C)nc2c1 [Example 143, 5-fluoro-N-[(2R,4R)-2-(5-methoxy-1H-benzimidazol-2-yl)-1-methylpiperidin-4-yl]-2,3-dihydro-1,4-benzodioxine-6-carboxamide triflouroacetate]
21 | 81.7% | COc1cccc(C(=O)N[C@@H]2CCN(C)[C@@H](c3nc4ccccc4[nH]3)C2)c1 [Example 112, N-[(2R,4R)-2-(1H-benzimidazol-2-yl)-1-methylpiperidin-4-yl]-3-methoxybenzamide trifluoroacetate]
22 | 104% | CN1C[C@@H](NC(=O)Nc2ccc(Cl)c(C(F)(F)F)c2)C[C@H]1c1nc2ccc(F)cc2[nH]1 [Example 58, 1-[4-chloro-3-(trifluoromethyl)phenyl]-3-[(3S,5S)-5-(6-fluoro-1H-benzimidazol-2-yl)-1-methylpyrrolidin-3-yl]urea]
23 | 96.8% | O=C(N[C@@H]1CCN(C2CCC2)[C@@H](c2nc3ccccc3[nH]2)C1)c1ccc2c(c1)OCCO2 [Example 82, N-[(2R,4R)-2-(1H-benzimidazol-2-yl)-1-cyclobutyl-piperidin-4-yl]-2,3-dihydro-1,4-benzodioxine-6-carboxamide hydrochloride]
24 | 107% | CN1CC[C@@H](NC(=S)c2ccc3c(c2)OCCO3)C[C@@H]1c1nc2ccccc2[nH]1 [Example 140, N-[(2R,4R)-2-(1H-benzimidazol-2-yl)-1-methylpiperidin-4-yl]-2,3-dihydro-1,4-benzodioxine-6-carbothioamide hydrochloride]
25 | 65.4% | COc1ccc(C(=O)N[C@@H]2CCN(C)[C@@H](c3nc4ccccc4[nH]3)C2)cc1F [Example 117, N-[(2R,4R)-2-(1H-benzimidazol-2-yl)-1-methylpiperidin-4-yl]-3-fluoro-4-methoxybenzamide trifluoroacetate]
26 | 63% | COc1ccc2nc([C@@H]3C[C@H](NC(=O)Nc4ccc(Cl)c(C(F)(F)F)c4)CN3)[nH]c2c1 [Example 20, 1-[4-chloro-3-(trifluoromethyl)phenyl]-3-[(3S,5S)-5-(6-methoxy-1H-benzimidazol-2-yl)pyrrolidin-3-yl]urea]
27 | 104% | COc1ccc(NC(=O)N[C@@H]2CCN(C)[C@@H](c3nc4cc(C(F)(F)F)ccc4[nH]3)C2)cn1 [Example 135, 1-(6-methoxypyridin-3-yl)-3-{(2R,4R)-1-methyl-2-[5-(trifluoromethyl)-1H-benzimidazol-2-yl]piperidin-4-yl}urea hydrochloride]
28 | 107% | Cc1ccc2[nH]c([C@H]3C[C@H](NC(=O)Nc4ccc(C)nc4)CCN3C3CCC3)nc2c1 [Example 151, 1-[(2R,4R)-1-cyclobutyl-2-(5-methy-1H-benzimidazol-2-yl)piperidin-4-yl]-3-(6-methylpyridin-3-yl)urea triflouroacetate]
29 | 101% | CN1CC[C@@H](NC(=O)c2ccc(N=[N+]=[N-])cc2)C[C@@H]1c1nc2ccccc2[nH]1 [Example 72, 4-azido-N-[(2R,4R)-2-(1H-benzimidazol-2-yl)-1-methylpiperidin-4-yl]benzamide]
30 | 106% | Cc1ccc(NC(=O)N[C@@H]2CCN(C3CCC3)[C@@H](c3nc4cc(C)c(C)cc4[nH]3)C2)cn1 [Example 152, 1-[(2R,4R)-1-cycobutyl-2-(5,6-dimethy-1H-benzimidazol-2-yl)piperidin-4-yl]-3-(6-methylpyridin-3-yl)urea triflouroacetate]

Row | SMILES | inhibition at 2 µM
31 | CN1CC[C@@H](NC(=O)Nc2ccc(Cl)cc2)C[C@@H]1c1nc2ccccc2[nH]1 [Example 30, 1-[(2R,4R)-2-(1H-benzimidazol-2-yl)-1-methylpiperidin-4-yl]-3-(4-chlorophenyl)urea hydrochloride] | 108%
